In US11173124B2, “Oral delivery of GLP-1 peptide analogs” (MEDIMMUNE LIMITED, priority 2017, dated 2021):
“And” between values parts separate entries of the source, which are not always exact repeats. Equal entries are not always repeated. Starred links: 1 amine or outer side, 2 acyl side, 3 side chain; linkers in the order of their positions; H or OH if unused. Non-standard residues stand in square brackets, D forms with d. Residues, ends and D or L forms follow the SMILES beside them. Groups on a side chain read outwards from the residue. *: point of attachment. γGlu = O=C(O)[C@H](CCC(=O)[*:2])N[*:1]; αMeF = C[C@](N)(Cc1ccccc1)C(=O)O; αMeK = C[C@](N)(CCCCN)C(=O)O; Lauroyl = CCCCCCCCCCCC(=O)*; αMeS = C[C@](N)(CO)C(=O)O; AEEA = NCCOCCOCC(=O)O; Aib = CC(C)(N)C(=O)O

Assays:
[1] = Canine study, MEDI7219 enterically coated tablets, enhancer ratios, amounts and peptide doses (Example 15); type: in vivo
Description: The next canine study (Table 22) was executed to confirm the performance of the formulation from the previous study (Example 14, Group 2 formulation, Table 21) at 1, 3 and 10 mg MEDI7219 (SEQ ID NO:2) peptide doses. The second goal was to explore the influence of formulation compositions designed around the Group 2 formulation with varying ratios and amounts of permeation enhancers in an enterically-coated tablet form on bioavailability and pharmacokinetic variability. The following formulation variables were tested: sodium chenodeoxycholate:propyl gallate ratios of 1:1, 1:2, and 1:3; 150, 300 and 450 mg of permeation enhancers at a 1:2 ratio; and 1, 3 and 10 mg peptide doses. All tablets were enterically coated with Eudragit formula dissolving at pH 5.5 and above.

[2] = Canine study, MEDI7219 enterically coated tablet, single and repeated dosing (Example 14); type: in vivo
Description: Tablet optimization was further established in the following canine study. The goals of this study were to evaluate the performance of the group 8 tablet formulation (Example 13, Table 20) as an enterically-coated (EC) tablet and to evaluate repeated dosing of this formulation. A Eudragit formula dissolving at pH 5.5 or above was applied to the tablets as enteric coating. Enterically-coated tablets were administered on day 0 followed by a 1 week wash-out. Following wash-out, animals received additional doses on days 7, 8, 9, 10 and 11.

[3] = Canine study, MEDI7219 enterically coated tablets with or without Tris base, fresh or stressed (Example 19, Table 26); type: in vivo; details: beagle, dog, plasma, po, Beagle dogs
Source text: The objective was to study influence of MEDI7219 (SEQ ID NO:2) enterically coated tablet formulation composition with or without Tris base on bioperformance Study design and outcomes are provided in Table 26.

[4] = Rat intraduodenal study, MEDI7219 with new gallate derivatives and other enhancers (Example 8); type: in vivo
Description: The next rat ID administration study was performed to assess the oral bioavailability and pharmacokinetics of MEDI7219 (SEQ ID NO:2) formulations containing new gallate derivatives, sodium 2-(3,4,5-trihydroxybenzoyloxy) acetate and butanoate, sodium cholate with propyl gallate, sodium caprate with propyl gallate, sodium caprate with propyl gallate and citric acid, and sucrose monododecanoate.

[5] = Canine study, Na CDC:PG ratios, PE amount and MEDI7219 dose in enterically coated tablets (Example 22, Table 29); type: in vivo; details: Beagle dogs, oral enterically coated tablet
Source text: The following materials and methods were used for quantitative measurements of GLP-1 peptide analogs in plasma (e.g., rat or dog plasma) in the Examples below. These methods used a SCIEX 6600 TripleTOF mass spectrometer coupled with a Shimadzu ultra-high performance liquid chromatography (UHPLC). The specificity of the method was ensured by the retention time, the selected mass for Single-Reaction-Monitoring (SRM) mode, and the selected fragment mass in MS/MS (MS^2) mode.
The plasma extraction procedure used the following steps: • Samples, standards, and quality controls were incubated until they reached room temperature. They were then incubated at 60° C. for 2 minutes and cooled down to room temperature, vortexed, and spun down. • 70 μL of samples, standards, or quality controls were transferred into a 1 mL 96-well plate. • In each well, 420 uL of Precipitation Solution was added. The plate was sealed and shook for 10 minutes on a plate shaker at 600 rpm. • The plate was centrifuged at 18G, 2500 RFC, 20° C. for 10 minutes. • The plate was carefully removed, and the upper clear supernatant was extracted with a 200 uL multichannel pipette into a new 96-well protein lobind plate. The supernatant was extracted twice for each well, and the supernatants were combined. • The Plate was placed in TurboVap and the extracted supernatant was dried completely with heated (65° C.) Nitrogen gas at 60 Fahrenheit (Fh). • After the plate was completely dry, the plates were covered and incubated at room temperature for at least 30 minutes until the plate returned back to ambient temperature. • 150 μL of Reconstitution solution was added to each well. The plate was covered with a pierceable place seal and shaken at 600 rpm for 10 minutes. • The samples were submitted to the LC-MS/MS on the same day of Preparation
Quantification of the data obtained using the high resolution SCIEX 6600 instrument was then performed as follows: • For the quantification, extracted ion chromatograms (XIC) using 0.2 Da m/z extraction window centered on the accurate mass of each fragment ion were generated. Accurate mass was calculated from the structure of the compound. […] Concentrations of the target analyte in unknown samples were obtained by regression analysis using linear fits of peak areas vs. analyte concentration, weighted 1/(concentration). • The quality of the assay was controlled by the quality control samples. • Either Experiment 1 or Experiment 2 could be used for the quantification of the GLP-1 peptide analogs in high resolution mode.

GLP-1 receptor = target: T1, GLP-1 receptor (Rattus norvegicus, UniProt P32301); test: cAMP assay, INSle assay as described in WO 2016/198544; type: cell-based; details: in vitro potency at the GLP-1 receptor
T1 construct: endogenous in cells; host or cells: INS-1E rat insulinoma cells (printed as 'INSle')
T1 sequence (P32301 22-463): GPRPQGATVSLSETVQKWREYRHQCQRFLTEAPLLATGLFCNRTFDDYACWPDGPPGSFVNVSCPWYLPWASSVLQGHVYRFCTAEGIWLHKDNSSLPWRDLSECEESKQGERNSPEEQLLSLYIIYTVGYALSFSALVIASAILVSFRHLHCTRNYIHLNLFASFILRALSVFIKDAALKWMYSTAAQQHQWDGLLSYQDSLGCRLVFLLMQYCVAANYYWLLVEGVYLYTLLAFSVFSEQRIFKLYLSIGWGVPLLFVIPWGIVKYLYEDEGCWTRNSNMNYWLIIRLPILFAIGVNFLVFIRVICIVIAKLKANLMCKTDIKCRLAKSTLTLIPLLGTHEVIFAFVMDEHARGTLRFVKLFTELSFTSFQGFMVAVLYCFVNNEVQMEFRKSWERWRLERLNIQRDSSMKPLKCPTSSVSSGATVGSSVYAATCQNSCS
Source text: The biological activity of a GLP-1 peptide analog can be evaluated, for example, by assessing the ability of the peptide to activate a receptor (e.g., a GLP-1 receptor). Peptide activation of such receptors results in downstream accumulation of cAMP second messenger which can be measured in a functional activity assay.

CCCCCCCCCCCC(=O)N[C@@H](CCC(=O)NCCOCCOCC(=O)NCCOCCOCC(=O)NCCCC[C@H](NC(=O)[C@H](C)NC(=O)[C@@H](NC(=O)[C@](C)(Cc1ccccc1)NC(=O)[C@H](CCC(=O)O)NC(=O)[C@](C)(CCCCN)NC(=O)[C@H](C)NC(=O)[C@H](C)NC(=O)[C@H](CCC(=O)O)NC(=O)CNC(=O)[C@H](CCC(=O)O)NC(=O)[C@H](CC(C)C)NC(=O)[C@H](CCCCNC(=O)COCCOCCNC(=O)COCCOCCNC(=O)CC[C@H](NC(=O)CCCCCCCCCCC)C(=O)O)NC(=O)[C@H](CO)NC(=O)[C@](C)(CO)NC(=O)[C@@H](NC(=O)[C@H](CC(=O)O)NC(=O)[C@H](CO)NC(=O)[C@@H](NC(=O)[C@](C)(Cc1ccccc1)NC(=O)[C@H](CO)NC(=O)CNC(=O)[C@H](CCC(=O)O)NC(=O)C(C)(C)NC(=O)[C@@H](N)Cc1c[nH]cn1)[C@@H](C)O)C(C)C)[C@@H](C)CC)C(=O)N[C@H](C(=O)N[C@H](C(=O)N[C@@H](CCC(=O)O)C(=O)NCC(=O)NCC(N)=O)C(C)C)C(C)C)C(=O)O [MEDI7219, Free-H-[AIB]-EGS-[αMePhe]-TSDV-[αMeSer]-SK[(PEG2)2-γE-Lauroyl]-LEGEAA-[αMeLys]-E-[αMePhe]-IAK[(PEG2)2-γE-Lauroyl]-VVEGG-amide] (H-H[Aib]EGS[αMeF]TSDV[αMeS]SK([AEEA-AEEA-γGlu-Lauroyl])LEGEAA[αMeK]E[αMeF]IAK([AEEA-AEEA-γGlu-Lauroyl])VVEGG-NH2)
F ([1]; Intravenous, 0.05 mg/kg): 100% | F ([1]; Oral tablet, Group 10: 1 mg peptide, 100 mg Na CDC, 200 mg PG): 1.11% | F ([1]; Oral tablet, Group 11: 1 mg peptide, 100 mg Na CDC, 200 mg PG): 4.78% | F ([1]; Oral, Group 2 Enterically Coated tablet: 3 mg peptide, 100 mg Na CDC, 200 mg PG): 15.5% | F ([1]; Oral, Group 3 Enterically Coated tablet: 10 mg peptide, 100 mg Na CDC, 200 mg PG): 7.5% | F ([1]; Oral, Group 4 Enterically Coated tablet: 3 mg peptide, 75 mg Na CDC, 225 mg PG): 7.52% | F ([1]; Oral, Group 5 Enterically Coated tablet: 3 mg peptide, 50 mg Na CDC, 100 mg PG): 11.1% | F ([1]; Oral, Group 6 Enterically Coated tablet: 10 mg peptide, 50 mg Na CDC, 100 mg PG): 13.5% | F ([1]; Oral, Group 7 Enterically Coated tablet: 3 mg peptide, 150 mg Na CDC, 300 mg PG): 7.53% | F ([1]; Oral, Group 8 Enterically Coated tablet: 3 mg peptide, 150 mg Na CDC, 150 mg PG): 6.62% | F ([1]; Oral, Group 9 Enterically Coated tablet: 1 mg peptide, 100 mg Na CDC, 200 mg PG): > 4% and 4.2% | F ([2]; Enterically Coated Oral tablet (Eudragit, pH 5.5): 1 mg peptide, 100 mg Na CDC, 200 mg PG): 4.6% | F ([2]; Intravenous, 0.05 mg/kg, 0.5 mg/mL in 50 mM Tris, 150 mM mannitol, 0.02% Polysorbate 80, pH8.0): 100% | bioavailability and PK variability on repeated dosing ([2]; enterically coated tablet 1 mg peptide, 100 mg Na CDC, 200 mg PG, day 0, then days 7, 8, 9, 10 and 11): consistent bioavailability with reduced PK variability in subsequent dosing days | bioavailability ([3]; 3 mg/dog, freshly prepared enterically coated no Tris tablet): 5.2% | bioavailability ([3]; 3 mg/dog, freshly prepared enterically coated tablets with Tris): 12.4% | bioavailability ([3]; stressed enterically coated tablet with Tris): 3.8% | bioavailability ([3]; stressed enterically coated tablet without Tris): 9.6% | Bioavailability F (%) ([4]; ID, 1 mg/kg, Group 6: 12.5 mg/mL Sodium Cholate, 25 mg/mL PG (25 + 50 mg/kg)): no bioavailability | Bioavailability F (%) ([4]; ID, 1 mg/kg, Group 7: 12.5 mg/mL Sodium Caprate, 25 mg/mL PG (25 + 50 mg/kg)): ~0.6% | Bioavailability F (%) ([4]; ID, 1 mg/kg, Group 8: 12.5 mg/mL Sodium Caprate, 25 mg/mL PG, 10 mg/mL Citric Acid): 0 (NA) % | exposure ([4]; ID, addition of citric acid to sodium caprate and propyl gallate): below level of quantification | Bioavailability F (%) ([4]; IV, 0.01 mg/kg, Group 1 control in 50 mM Tris, 150 mM Mannitol, 0.02% Polysorbate 80, pH 8.5): 100% | F ([5]; 150 mg Na CDC and no PG): ~2% | F ([5]; 150 mg PE, 1:2 Na CDC:PG ratio): ~6% | F ([5]; 150 mg PE, 2:1 Na CDC:PG ratio): ~7% | F ([5]; 6.5:1 Na CDC:PG ratio (130 mg Na CDC, 20 mg PG)): ~4% | EC50 (GLP-1 receptor): ~0.116 nM
